Conditions: Liquid, Transpiration method

COC(=O)CCCCC(=O)OC [dimethyl 1,6-hexanedioate]
Conditions	vapor or sublimation pressure [kPa]
293.2 K	0.00253
296.2 K	0.00336
299.2 K	0.00443
302.2 K	0.00586
305.2 K	0.0074
308.2 K	0.00991
310.2 K	0.01133
313.3 K	0.01454
316.2 K	0.01794
319.3 K	0.02356
322.2 K	0.02831
325.3 K	0.03778
328.2 K	0.04592
331.2 K	0.05704
334.2 K	0.06981

CCOC(=O)c1ccccc1 [ethyl benzoate]
Conditions	vapor or sublimation pressure [kPa]
283.9 K	0.0071
286.9 K	0.0093
289 K	0.0113
292 K	0.0143
294.1 K	0.0174
295 K	0.0183
298.1 K	0.0239
299.1 K	0.0254
301.2 K	0.0312
304.2 K	0.039
307.2 K	0.0472
310.1 K	0.0597
312.3 K	0.0716
315.3 K	0.0862
317.3 K	0.1055
320.3 K	0.1297
323.4 K	0.1656
326.4 K	0.2016
329.5 K	0.2452
332.5 K	0.2944

From the NIST ThermoML archive (doi:10.1021/je050334+)
